Patent EP0041488A1, “Therapeutically useful tetralin derivatives” (Arvidsson, Folke Lars-Erik, priority 1980, dated 1981)
Marks after values point to notes of the source that are not given here.

Key:
central 5-HT receptors = assay: In-vivo determination of rat brain tryptophan hydroxylation (5-HTP formation) after reserpine pretreatment; details: reserpine-pretreated rats; for "ED70%" for 5-HTP reduction: s.c., dose giving 70 % of the control 5-HTP level, similar values for limbic forebrain, striatum and hemispheral portions
Description: b. In-vivo determination of rat brain tyrosine and tryptophan hydroxylation after reserpine pretreatment (biochemical DA- and 5-HT receptor activity).
The compounds under evaluation were tested biochemically for central DA- and 5-HT-receptor (pre- and/or postsynaptic) stimulating activity. The concept of this biochemical screening method is that a DA- or 5-HT-receptor agonist will stimulate the receptor and through regulatory feedback systems effect a decline-in tyrosine or tryptophan hydroxylating activity, respectively, and a subsequent reduction in the synthesis rate for DA and 5-HT in the presynaptic neuron. Dopa and 5-HTP formation. as determined after in-vivo inhibition of the aromatic L-amino acid decarboxylase with NSO 1015 (3-hydroxybenzylhydrazine hydrochloride) are taken as indirect measures of DA- and 5-HT-synthesis rates, respectively.
Rats (150-300 g) pretreated with reserpine (5 mg/kg, 18 h before) were given the compounds under evaluation. Gross behavioural observations (changes in motility, hindleg abduction etc; c.f. above) were made. Subsequent administration of NSD 1015, decapitation, brain dissection [cerpera striate, the limbic ferebrain and the remaining hemispheral portions (mainly cortex) of rat brain], homogenization, centrifugation, ion-exchange chromatography and spectro- fluorimetric measurements (all as described in detail by Wikström et al., J. Med. Chem., 21, 864-867, 1978 and references cited therein) gave the actual dopa and 5-HTP levels. Several doses (n=4-6) were tested for each compound and brain area. The dose of a compound giving 70 % of the control 5-HTP.level in the rat brain part was then estimated.

Male Wistar rats = assay: Hetero-sexual (masculine copulatory) behaviour in normal male rats; assay type: in vivo, rat; details: median
Description: (§1) Male Wistar rats (12 months old; sexually experienced) were injected i.p. every second day in a balanced order with different doses of the compounds dissolved in physiological saline and injected in a volume of 2 ml/kg. Testing was begun 15 min after the drug treatment.
(§2) Mating arenas were 50' cm diameter acrylic glass cages with wood shavings on the floor. The stimulus females were of Wistar strain, primed with estradiol benzoate . (20 µg/animal) 48 h prior to testing and progesterone ([…]/animal) 4-6 h before testing.
(§3) The occurrence of mounts, intromissions and ejaculations were scored by an experienced observer. The measures of masculine copulatory behavior further included mount latency and intromission latency which are time from introduction of the stimulus female to the first mount and first intromission respectively. A copulatory series includes the mounts and intromissions preceding an ejaculation. Ejaculatory latency is the time from the first .intromission in a copulatory series to the ejaculation terminating that series. The postejaculatory interval is the time from an ejaculation to the next intromission. Tests were terminated when the rat had achieved one ejaculation and started the second series of copulations, or, if the intromission latency was >15 min, the ejaculation latency was >30 min, or the postejaculatory interval was >15 min.

castrated male rats = assay: Sexual behaviour in castrated male rats (preliminary); assay type: in vivo, rat
Description: as §1, §2, §3

[1] = subgroup 1 of biochemical potency
[2] = subgroup 3 of biochemical potency

Compound: Oc1cccc2c1CC(N1CCCCC1)CC2 (stereo not shown) [Compound 24]
- "ED70%" for 5-HTP reduction (central 5-HT receptors): <20 µmol/kg

Compound: CCCCN(CCC)C1CCc2cccc(O)c2C1 (stereo not shown) [Compound 21]
- "ED70%" for 5-HTP reduction (central 5-HT receptors): 0.5 µmol/kg
- "ED70%" (central 5-HT receptors; [1]): 0.01 to 1.0 µmol/kg

Compound: CCCCN(CCCC)C1CCc2cccc(O)c2C1 (stereo not shown) [Compound 22]
- "ED70%" for 5-HTP reduction (central 5-HT receptors): 8 µmol/kg

Compound: CCCN(CCC)C1CCc2cccc(OC)c2C1 (racemic) [Compound 8, 2-(di-n-propylamino)-8-methoxytetralin]
- "ED70%" for 5-HTP reduction (central 5-HT receptors): 0.4 µmol/kg
- Mounts (number) (Male Wistar rats; 1 mg/kg i.p., 15 min after treatment, control 2): 0^* b)
- Ejaculatory latency (Male Wistar rats; 1 mg/kg i.p., 15 min after treatment, control 4.75): 3.20 min
- Postejaculatory interval (Male Wistar rats; 1 mg/kg i.p., 15 min after treatment, control 5.50): 6.40 min
- Intromissions (number) (Male Wistar rats; 1 mg/kg i.p., 15 min after treatment, control 9): 8
- Mounts (number) (Male Wistar rats; 2 mg/kg i.p., 15 min after treatment, control 2): 1
- Ejaculatory latency (Male Wistar rats; 2 mg/kg i.p., 15 min after treatment, control 4.75): 2.65 min
- Postejaculatory interval (Male Wistar rats; 2 mg/kg i.p., 15 min after treatment, control 5.50): 5.05 min
- Intromissions (number) (Male Wistar rats; 2 mg/kg i.p., 15 min after treatment, control 9): 7^***
- Mounts (number) (Male Wistar rats; 4 mg/kg i.p., 15 min after treatment, control 2): 1^***
- Ejaculatory latency (Male Wistar rats; 4 mg/kg i.p., 15 min after treatment, control 4.75): 1.55^*** min
- Postejaculatory interval (Male Wistar rats; 4 mg/kg i.p., 15 min after treatment, control 5.50): 4.55 min
- Intromissions (number) (Male Wistar rats; 4 mg/kg i.p., 15 min after treatment, control 9): 3.5^***
- Mounts (number) (Male Wistar rats; 8 mg/kg i.p., 15 min after treatment, control 2): 0^**
- Ejaculatory latency (Male Wistar rats; 8 mg/kg i.p., 15 min after treatment, control 4.75): 0.45^*** min
- Postejaculatory interval (Male Wistar rats; 8 mg/kg i.p., 15 min after treatment, control 5.50): 5.05 min
- Intromissions (number) (Male Wistar rats; 8 mg/kg i.p., 15 min after treatment, control 9): 1.5^***
- Mounts (number) (Male Wistar rats; 16 mg/kg i.p., 15 min after treatment, control 2): 0^***
- Ejaculatory latency (Male Wistar rats; 16 mg/kg i.p., 15 min after treatment, control 4.75): 0.55^*** min
- Postejaculatory interval (Male Wistar rats; 16 mg/kg i.p., 15 min after treatment, control 5.50): 4.55 min
- Intromissions (number) (Male Wistar rats; 16 mg/kg i.p., 15 min after treatment, control 9): 1^***
- castrated male rats that ejaculated (castrated male rats; 8 mg/kg, out of 9 rats (of the 2 with intromissions), preliminary): 1
- castrated male rats that made intromissions (castrated male rats; 8 mg/kg, out of 9 rats (of the 5 that mounted), preliminary): 2
- castrated male rats that mounted the female (castrated male rats; 8 mg/kg, out of 9 rats, none of 9 saline-treated showed any sexual activity, preliminary): 5
- sexual activity of male rats rendered sexual inactive by castration (castrated male rats; preliminary experiments): became sexual active

Compound: CCCCCCCCNC1CCc2cccc(O)c2C1 (stereo not shown) [Compound 18]
- "ED70%" for 5-HTP reduction (central 5-HT receptors): 50 µmol/kg
- "ED70%" (central 5-HT receptors; [2]): above 10 umol/kg

Compound: CNC1CCc2cccc(O)c2C1 (stereo not shown) [Compound 14]
- "ED70%" for 5-HTP reduction (central 5-HT receptors): 1.5 to 10 µmol/kg

Compound: Br.CCCN(CCC)C1CCc2cccc(O)c2C1 (stereo not shown) [Compound 20, 2-(di-n-propylamino)-8-hydroxytetralin hydrobromide]
- "ED70%" for 5-HTP reduction (central 5-HT receptors): 0.06 µmol/kg
- "ED70%" (central 5-HT receptors; [1]): 0.01 to 1.0 µmol/kg
- Mounts (number) (Male Wistar rats; 4 mg/kg i.p., second experiment (N 9), control 1): 0
- Ejaculatory latency (Male Wistar rats; 4 mg/kg i.p., second experiment (N 9), control 1.80): 0.25 min
- Postejaculatory interval (Male Wistar rats; 4 mg/kg i.p., second experiment (N 9), control 4.45): 4.75 min
- Intromissions (number) (Male Wistar rats; 4 mg/kg i.p., second experiment (N 9), control 5): 1^***

Compound: CCCN(CCC)C1CCc2cccc(OC)c2C1 (single isomer, unassigned; (-)) [(-)-8]
- "ED70%" for 5-HTP reduction (central 5-HT receptors): 0.3 to 0.4 µmol/kg
- Mounts (number) (Male Wistar rats; 4 mg/kg i.p., 15 min after treatment, control 2, listed as (-)-8 · HCl): 0.5^*
- Ejaculatory latency (Male Wistar rats; 4 mg/kg i.p., 15 min after treatment, control 4.75, listed as (-)-8 · HCl): 1.30^*** min
- Postejaculatory interval (Male Wistar rats; 4 mg/kg i.p., 15 min after treatment, control 5.50, listed as (-)-8 · HCl): 5.65 min
- Intromissions (number) (Male Wistar rats; 4 mg/kg i.p., 15 min after treatment, control 9, listed as (-)-8 · HCl): 4.5^**

Compound: CC(C)NC1CCc2cccc(O)c2C1 (stereo not shown) [Compound 17]
- "ED70%" for 5-HTP reduction (central 5-HT receptors): 8 µmol/kg

Compound: CCCN(Cc1ccccc1)C1CCc2cccc(O)c2C1 (stereo not shown) [Compound 23]
- "ED70%" for 5-HTP reduction (central 5-HT receptors): 3 µmol/kg

Compound: CCCN(CCC)C1CCc2cccc(OC)c2C1 (single isomer, unassigned; (+)) [(+)-8]
- "ED70%" for 5-HTP reduction (central 5-HT receptors): 0.2 to 0.4 µmol/kg
- Mounts (number) (Male Wistar rats; 4 mg/kg i.p., 15 min after treatment, control 2, listed as (+)-8 · HCl): 1^*
- Ejaculatory latency (Male Wistar rats; 4 mg/kg i.p., 15 min after treatment, control 4.75, listed as (+)-8 · HCl): 1.05^*** min
- Postejaculatory interval (Male Wistar rats; 4 mg/kg i.p., 15 min after treatment, control 5.50, listed as (+)-8 · HCl): 6.15 min
- Intromissions (number) (Male Wistar rats; 4 mg/kg i.p., 15 min after treatment, control 9, listed as (+)-8 · HCl): 2^***

Compound: CCCCNC1CCc2cccc(O)c2C1 (stereo not shown) [Compound 16]
- "ED70%" for 5-HTP reduction (central 5-HT receptors): 6 µmol/kg

Compound: CCCNC1CCc2cccc(O)c2C1 (stereo not shown) [Compound 15]
- "ED70%" for 5-HTP reduction (central 5-HT receptors): 0.4 µmol/kg

Compound: CCCCN(CCCC)C1CCc2cccc(OC)c2C1 (stereo not shown) [Compound 10]
- "ED70%" for 5-HTP reduction (central 5-HT receptors): 25 µmol/kg
- "ED70%" (central 5-HT receptors; [2]): above 10 umol/kg

Compound: CCCN(CC)C1CCc2cccc(O)c2C1 (stereo not shown) [Compound 19]
- "ED70%" for 5-HTP reduction (central 5-HT receptors): 0.09 µmol/kg
